This note sets out measurements from ChEMBL document CHEMBL1153340, “Inhibitors of HIV-1 attachment. Part 2: An initial survey of indole substitution patterns” (Bioorg Med Chem Lett, 2009).

SMILES strings stand for the structures.

Tested on in the first series: not listed separately
The experiment in a line: Volume of distribution at steady state in rat at 5 mg/kg, iv dosed as solution in PEG400/EtOH. The class given is ADME, organism-based. Also on record: dose 5 mg/kg, route intravenous. The following applies: in vivo, read-out: Vdss.
Take `O=C(C(=O)N1CCN(C(=O)c2ccccc2)CC1)c1c[nH]c2ccccc12`: the Vd was 1.5 L/kg.

Tested on in the next series: not listed separately
The experiment in a line: Cmax in rat at 25 mg/kg, po dosed as solution in PEG400/EtOH. Set-up: dose 25 mg/kg, route oral. The class given is ADME, organism-based. The following applies: in vivo.
On to `O=C(C(=O)N1CCN(C(=O)c2ccccc2)CC1)c1c[nH]c2ccccc12`, for which the Cmax – broadly, the maximum level reached in the sampled fluid or tissue – was 1040 ng/mL.

Tested on in the next series: not listed separately
The experiment in a line: Oral bioavailability in rat at 25 mg/kg dosed as solution in PEG400/EtOH. In kind it is ADME, organism-based. The settings on record: in vivo.
For `O=C(C(=O)N1CCN(C(=O)c2ccccc2)CC1)c1c[nH]c2ccccc12`, the bioavailability (commonly dose-corrected exposure relative to a reference, in per cent) came out at 29%.

Tested on in a further series: not listed separately
The experiment in a line: Terminal half life in rat at 25 mg/kg, po dosed as solution in PEG400/EtOH. In kind it is ADME, organism-based. Also on record: dose 25 mg/kg, route oral. The following applies: in vivo, read-out: beta t1/2.
In the case of `O=C(C(=O)N1CCN(C(=O)c2ccccc2)CC1)c1c[nH]c2ccccc12`, the half-life was found to be 163 min.

Tested on in the next series: not listed separately
The experiment in a line: Tmax in rat at 25 mg/kg, po dosed as solution in PEG400/EtOH. In kind it is ADME, organism-based. Also on record: dose 25 mg/kg, route oral. The settings on record: in vivo.
Turning to `O=C(C(=O)N1CCN(C(=O)c2ccccc2)CC1)c1c[nH]c2ccccc12`, the Tmax (commonly the time at which the peak concentration occurs) was 33 min.

Tested on in the next series: not listed separately
The experiment in a line: Cytotoxicity against human HeLa67 cells expressing CD4/CCR5 after 3 days by XTT assay. In kind it is cell-based.
Settings: not given
With `O=C(C(=O)N1CCN(C(=O)c2ccccc2)CC1)c1c[nH]c2ccccc12`, the CC50 (in general, the concentration giving 50% cytotoxicity) at 72 h stood at 339 µM.
On the same count and under the same terms, to `CCOc1cccc2c(C(=O)C(=O)N3CCN(C(=O)c4ccccc4)CC3)c[nH]c12` belongs 117 µM; to `N#Cc1ccc2[nH]cc(C(=O)C(=O)N3CCN(C(=O)c4ccccc4)CC3)c2c1`, over 300 µM; to `COc1ccc(Cl)c2[nH]cc(C(=O)C(=O)N3CCN(C(=O)c4ccccc4)CC3)c12`, over 300 µM.
Turning to `O=C(C(=O)N1CCN(C(=O)c2ccccc2)CC1)c1c[nH]c2cccc(Br)c12`, it took 142 µM to reach half-maximal cytotoxicity (CC50 at 72 h).
Same read-out and setting: for `O=C(C(=O)N1CCN(C(=O)c2ccccc2)CC1)c1c[nH]c2cccc([N+](=O)[O-])c12` the value was over 300 µM; for `CC(=O)Oc1ccc2[nH]cc(C(=O)C(=O)N3CCN(C(=O)c4ccccc4)CC3)c2c1`, 95.2 µM; for `O=C(C(=O)N1CCN(C(=O)c2ccccc2)CC1)c1c[nH]c2cc(Cl)ccc12`, over 110 µM.
With `COc1ccc2c(C(=O)C(=O)N3CCN(C(=O)c4ccccc4)CC3)c[nH]c2c1`, the cytotoxic concentration (CC50) at 72 h is over 300 µM.
Still for that read-out and setting: to `CC(=O)Oc1cccc2[nH]cc(C(=O)C(=O)N3CCN(C(=O)c4ccccc4)CC3)c12` belongs over 300 µM.
The compound `C/C=C/n1cc(C(=O)C(=O)N2CCN(C(=O)c3ccccc3)CC2)c2ccccc21` gave a CC50 at 72 h of 202 µM.
On to `O=C(C(=O)N1CCN(C(=O)c2ccccc2)CC1)c1c[nH]c2c(F)c(F)c(F)c(F)c12`, for which half-maximal cytotoxicity (CC50 at 72 h) was put at 55.7 µM.
The same measure, in the same setting: to `CCn1cc(C(=O)C(=O)N2CCN(C(=O)c3ccccc3)CC2)c2ccccc21` belongs over 300 µM; to `O=C(C(=O)N1CCN(C(=O)c2ccccc2)CC1)c1cn(Cc2ccccc2)c2ccccc12`, 182 µM.
For the compound `CCCCn1cc(C(=O)C(=O)N2CCN(C(=O)c3ccccc3)CC2)c2ccccc21`, the CC50 at 72 h was over 300 µM.
Same read-out and setting: to `COc1ccc2[nH]cc(C(=O)C(=O)N3CCN(C(=O)c4ccccc4)CC3)c2c1` belongs over 300 µM; to `O=C(C(=O)N1CCN(C(=O)c2ccccc2)CC1)c1c[nH]c2ccc([N+](=O)[O-])cc12`, 44.6 µM.
On the same count and under the same terms, for `CCOc1cccc2[nH]cc(C(=O)C(=O)N3CCN(C(=O)c4ccccc4)CC3)c12` the value was over 94.8 µM.
Same read-out and setting: to `O=C(C(=O)N1CCN(C(=O)c2ccccc2)CC1)c1c[nH]c2c(Br)ccc(OC(F)(F)F)c12` belongs 75.7 µM.
Compound `O=C(C(=O)N1CCN(C(=O)c2ccccc2)CC1)c1c[nH]c2ccc(F)cc12` gave a CC50 at 72 h of over 300 µM.
`O=C(C(=O)N1CCN(C(=O)c2ccccc2)CC1)c1c[nH]c2ccc(Cl)cc12` had a CC50 at 72 h of 46 µM. This lies in the double-digit micromolar range.
On the same count and under the same terms, to `O=C(C(=O)N1CCN(C(=O)c2ccccc2)CC1)c1c[nH]c2ccc(Br)cc12` belongs over 149 µM; to `O=C(C(=O)N1CCN(C(=O)c2ccccc2)CC1)c1c[nH]c2c(Br)ccc(F)c12`, 39.8 µM.
The same measure, in the same setting: for `Cc1ccc2[nH]cc(C(=O)C(=O)N3CCN(C(=O)c4ccccc4)CC3)c2c1` the value was over 300 µM.
`O=C(C(=O)N1CCN(C(=O)c2ccccc2)CC1)c1c[nH]c2cc(F)c(Br)c(F)c12` came in with a 50% cytotoxic concentration (CC50) at 72 h of 20.9 µM. That is a double-digit micromolar value.
Same read-out and setting: to `CCc1cccc2c(C(=O)C(=O)N3CCN(C(=O)c4ccccc4)CC3)c[nH]c12` belongs over 49 µM; to `O=C(C(=O)N1CCN(C(=O)c2ccccc2)CC1)c1c[nH]c2cc(F)c(F)cc12`, 170 µM.

Tested on in another series: not listed separately
The experiment in a line: Mean residence time in rat at 5 mg/kg, iv dosed as solution in PEG400/EtOH. In kind it is ADME, organism-based. Also on record: dose 5 mg/kg, route intravenous. The following applies: in vivo.
In the case of `O=C(C(=O)N1CCN(C(=O)c2ccccc2)CC1)c1c[nH]c2ccccc12`, the mean residence time MRT (usually the average time that molecules of a dose stay in the body) is 26 min.

Tested on in the next series: not listed separately
The experiment in a line: Permeability across human Caco-2 cells. The class given is ADME, cell-based. The following applies: read-out: permeability. In general terms: Passage across Caco-2 layers is used to estimate intestinal permeability.
On to `O=C(C(=O)N1CCN(C(=O)c2ccccc2)CC1)c1c[nH]c2ccccc12`, for which the Papp stood at 22.8 ×10⁻⁶ cm/s.

For the next series, the system named is Human immunodeficiency virus 1. The experiment in a line: Antiviral activity against pseudotype HIV1 JRFL infected in human HeLa67 cells expressing CD4/CCR5 after 3 days by luciferase reporter gene assay. The class given is functional, organism-based. The following applies: Human immunodeficiency virus 1, JRFL, HeLa67, 72 h. (In general: In a reporter assay the amount or activity of a reporter protein is the signal.)
As to `O=C(C(=O)N1CCN(C(=O)c2ccccc2)CC1)c1c[nH]c2ccccc12`, the midpoint of the response, the EC50, lay at 153 nM.
Take `CCOc1cccc2c(C(=O)C(=O)N3CCN(C(=O)c4ccccc4)CC3)c[nH]c12`: the EC50 (usually the concentration needed to bring the measured effect to its halfway point) came out at 0.5 nM.
As to `N#Cc1ccc2[nH]cc(C(=O)C(=O)N3CCN(C(=O)c4ccccc4)CC3)c2c1`, the concentration giving a half-maximal response (EC50) came out at 121000 nM.
For `COc1ccc(Cl)c2[nH]cc(C(=O)C(=O)N3CCN(C(=O)c4ccccc4)CC3)c12`, a half-maximal effect (EC50) was put at 0.07 nM.
Still for that read-out and setting: for `O=C(C(=O)N1CCN(C(=O)c2ccccc2)CC1)c1c[nH]c2cccc(Br)c12` the value was 4.5 nM; for `O=C(C(=O)N1CCN(C(=O)c2ccccc2)CC1)c1c[nH]c2cccc([N+](=O)[O-])c12`, 150 nM; for `CC(=O)Oc1ccc2[nH]cc(C(=O)C(=O)N3CCN(C(=O)c4ccccc4)CC3)c2c1`, 952 nM.
Same read-out and setting: for `O=C(C(=O)N1CCN(C(=O)c2ccccc2)CC1)c1c[nH]c2cc(Cl)ccc12` the value was 208 nM.
Compound `COc1ccc2c(C(=O)C(=O)N3CCN(C(=O)c4ccccc4)CC3)c[nH]c2c1` returned an EC50 of 329 nM.
Compound `CC(=O)Oc1cccc2[nH]cc(C(=O)C(=O)N3CCN(C(=O)c4ccccc4)CC3)c12` came in with an EC50 of 24900 nM.
`C/C=C/n1cc(C(=O)C(=O)N2CCN(C(=O)c3ccccc3)CC2)c2ccccc21` had a 50% effective concentration (EC50) of 6760 nM. This EC50 lies about 3.7-fold lower than the previous one.
The compound `O=C(C(=O)N1CCN(C(=O)c2ccccc2)CC1)c1c[nH]c2c(F)c(F)c(F)c(F)c12` yielded an EC50 of 1.7 nM.
On to `CCn1cc(C(=O)C(=O)N2CCN(C(=O)c3ccccc3)CC2)c2ccccc21`, for which the EC50 amounted to 1450 nM. Compared with the last compound, the EC50 is about 850-fold higher.
The same measure, in the same setting: to `O=C(C(=O)N1CCN(C(=O)c2ccccc2)CC1)c1cn(Cc2ccccc2)c2ccccc12` belongs 13800 nM; to `CCCCn1cc(C(=O)C(=O)N2CCN(C(=O)c3ccccc3)CC2)c2ccccc21`, 2650 nM; to `COc1ccc2[nH]cc(C(=O)C(=O)N3CCN(C(=O)c4ccccc4)CC3)c2c1`, 21100 nM.
Still for that read-out and setting: for `O=C(C(=O)N1CCN(C(=O)c2ccccc2)CC1)c1c[nH]c2ccc([N+](=O)[O-])cc12` the value was 3800 nM; for `CCOc1cccc2[nH]cc(C(=O)C(=O)N3CCN(C(=O)c4ccccc4)CC3)c12`, 0.45 nM.
Still for that read-out and setting: for `O=C(C(=O)N1CCN(C(=O)c2ccccc2)CC1)c1c[nH]c2c(Br)ccc(OC(F)(F)F)c12` the value was 42.8 nM.
For `O=C(C(=O)N1CCN(C(=O)c2ccccc2)CC1)c1c[nH]c2ccc(F)cc12`, the EC50 was 838 nM.
Same read-out and setting: for `O=C(C(=O)N1CCN(C(=O)c2ccccc2)CC1)c1c[nH]c2ccc(Cl)cc12` the value was 395 nM; for `O=C(C(=O)N1CCN(C(=O)c2ccccc2)CC1)c1c[nH]c2ccc(Br)cc12`, 1090 nM.
Same read-out and setting: for `O=C(C(=O)N1CCN(C(=O)c2ccccc2)CC1)c1c[nH]c2c(Br)ccc(F)c12` the value was 0.13 nM.
Consider `Cc1ccc2[nH]cc(C(=O)C(=O)N3CCN(C(=O)c4ccccc4)CC3)c2c1`, for which it took 1550 nM to reach a half-maximal effect (EC50).
`O=C(C(=O)N1CCN(C(=O)c2ccccc2)CC1)c1c[nH]c2cc(F)c(Br)c(F)c12` returned a 50% effective concentration (EC50) of 23.1 nM.
The same measure, in the same setting: to `CCc1cccc2c(C(=O)C(=O)N3CCN(C(=O)c4ccccc4)CC3)c[nH]c12` belongs 24.2 nM.
The same measure, in the same setting: to `O=C(C(=O)N1CCN(C(=O)c2ccccc2)CC1)c1c[nH]c2cc(F)c(F)cc12` belongs over 290 nM.

Tested on in a further series: not listed separately
The experiment in a line: Terminal half life in rat at 5 mg/kg, iv dosed as solution in PEG400/EtOH. In kind it is ADME, organism-based. Also on record: dose 5 mg/kg, route intravenous. The following applies: in vivo, read-out: beta t1/2.
In the case of `O=C(C(=O)N1CCN(C(=O)c2ccccc2)CC1)c1c[nH]c2ccccc12`, the half-life worked out at 30 min.

Tested on in another series: not listed separately
The experiment in a line: Clearance in rat at 5 mg/kg, iv dosed as solution in PEG400/EtOH. In kind it is ADME, organism-based. Also on record: dose 5 mg/kg, route intravenous. The settings on record: in vivo.
Turning to `O=C(C(=O)N1CCN(C(=O)c2ccccc2)CC1)c1c[nH]c2ccccc12`, the clearance – broadly, a measure of how efficiently the substance is removed, as volume per time – amounted to 57 mL/min/kg.
